Experimental data as given in US20260216144A1, “TARGETING MB2 OF THE MYC ONCOGENE AND ITS INTERACTION WITH TRRAP IN CANCER” (priority 2019, published 2026).
Where two headings read alike, the source gives them in different places.

Molecular target: MYC:TRRAP interaction (Homo sapiens, UniProt P01106+Q9Y4A5)
Assay: MYC:TRRAP in-cell luminescence complementation assay (NanoBiT; SmB-MYC 1-190 and TRRAP 2033-2283-LgB in HeLa cells)
Format: cell-based
Description: HeLa cells plated on Greiner 96-well TC-rated white plates with clear bottoms were used for the following measurements. Reverse transfections were carried out using LipoD293™ before cells were plated. A bluescript KS' plasmid (Addgene) was used as carrier DNA for transfections, and a pcDNA3.1 EGFP plasmid (ThermoFisher) was used as a fluorescence reporter. White light-reflecting film (USA Scientific) was used to cover the bottom of the plates for luminescence measurements. Black light-absorbing film was used to cover the top of the plates for fluorescence measurements. All measurements were taken on a SpectraMax i3 instrument (Molecular Devices).
Transfections were carried out with increasing DNA amounts (1-100 ng per well) of a CMV-driven LgB plasmid and SmB in excess or vice-versa. Background luminesce for the usable range and the amount of DNA needed for vast excess of LgB or SmB were noted. Next, complementation with vast excess either LgB or SmB was used to determine the expression of each of the indicated MYC and TRRAP constructs for a range of DNA amounts per well: 10-100 ng. An optimal ratio of DNA to equalize the expression of each MYC and TRRAP pair was calculated. Then, signal-to-noise ratios were calculated for the indicated MYC and TRRAP pairs, and the pair with the highest ratio was chosen. Finally, the chosen pair was used to determine the optimal DNA transfection mixture. It was determined to be 6.7 ng of a plasmid with a MYC construct, 60 ng of a plasmid with a TRRAP construct and 33.3 ng of the pcDNA 3.1 EGFP plasmid, for each well in a 96-well plate. Unless otherwise indicated, these were the ratios of DNA transfected for this type of assay.
HeLa cells were transfected as above using LipoD293™ with a mixture of SmB-MYC 1-190, TRRAP 2033-2283-LgB, and EGFP in CMV-driven plasmids at the same optimized ratio described above. Two days post-transfection, the media in each well was replaced with fresh media containing each compound from the NCI's sets at 25 μM. Cells were incubated for 2 h with each compound, and luminescence and fluorescence measurements were recorded for each well. Changes in luminescence were normalized to fluorescence. The following pre-plated compound sets were obtained from the NCI/DTP chemical repository and used for this screen:
These chemical sets were used to discover novel small-molecule inhibitors of the MYC:TRRAP complex. SmB-MYC 1-190, TRRAP 2033-2283-LgB, and EGFP were transfected into HeLa cells. Two days post-transfection, compounds were added to the media at 25 μM and cells were incubated for 2h. Luminescence and fluorescence were recorded for each well containing one of the compounds. Changes in luminescence measurements were normalized to fluorescence measurements.
Afterwards, only molecules that reduced luminescence levels to <50% RLU were considered. This set of 46 compounds were incubated at 10 μM with vector-expressing cells. Luminescence complementation was measured and repeated in triplicate measurements. In addition, HeLa cells expressing LgB and SmB alone were incubated with the same compounds to rule out potentially artificial results due to inhibition of luciferase or its complementation. Molecules that induces any significant reduction in luminescence (<0.6) during this control assay were not considered further. Of 2947 molecules, 17 were chosen for further testing and ordered from the NCI/DTP Open Chemical Repository. FIG. 16 describes these chosen compounds.
Using the luminescence assay above as a readout for the MYC:TRRAP interaction, we used a robotic liquid handler to evaluate 2987 additional compounds (25 μM). All primary hits were counter-screened for any activity against the luciferase enzyme itself and for any effects on the expression of the fusion proteins. We set a threshold of 50% inhibition to consider compounds further. Only 17 out of 2987 passed all these criteria (0.6%). […]

[1] = Table 1, 46 primary hits at 10 uM, HeLa cells, triplicate measurements
[2] = Table 1, 46 primary hits at 10 uM, HeLa cells, triplicate measurements, 10 µM

Chain of MYC:TRRAP interaction (P01106 16-205): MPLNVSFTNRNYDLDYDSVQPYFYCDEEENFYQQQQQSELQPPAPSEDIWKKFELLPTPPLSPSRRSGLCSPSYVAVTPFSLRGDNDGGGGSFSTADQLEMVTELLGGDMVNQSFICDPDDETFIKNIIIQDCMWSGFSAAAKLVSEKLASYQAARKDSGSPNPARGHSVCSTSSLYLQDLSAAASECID
Chain of MYC:TRRAP interaction (Q9Y4A5 2051-2301): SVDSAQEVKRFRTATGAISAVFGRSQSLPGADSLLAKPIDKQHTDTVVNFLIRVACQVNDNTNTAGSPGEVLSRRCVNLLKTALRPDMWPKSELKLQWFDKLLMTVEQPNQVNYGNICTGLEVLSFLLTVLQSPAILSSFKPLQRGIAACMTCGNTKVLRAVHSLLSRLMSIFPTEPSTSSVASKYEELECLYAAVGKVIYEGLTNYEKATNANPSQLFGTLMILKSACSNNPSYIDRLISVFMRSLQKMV

SMILES	% Inhibition 10 uM [1] [%]	other results
CN(C)c1ccc(C=C2C=C(c3ccc4c(c3)CCCC4)OC2=O)cc1 (stereo in doubt) [Compound 46, (3Z)-3-[[4-(dimethylamino)phenyl]methylidene]-5-(5,6,7,8-tetrahydro-naphthalen-2-yl)furan-2-one]	96.48	–
N#CC(=C/N=C(S)/N=N/c1c(O)[nH]c2ccccc12)c1nc2ccccc2s1 (stereo in doubt) [Compound 1030, 1-[(E)-2-(1,3-benzothiazol-2-yl)-2-cyanoethenyl]-3-[(2-hydroxy-1H-indol-3-yl)imino] thiourea]	–	% Inhibition 10 uM (Table 2, compounds with >80% similarity to compound 10 (NSC657456), 10 uM): 48.26%
N=c1ccc(/N=N/c2ccc(O)cc2)c(N)[nH]1 [Compound 4, 4-[(2,6-diaminopyridin-3-yl)diazenyl]phenol]	30.35	–
COC(=O)c1cc(-c2c[nH]cc2C(=O)OCc2ccccc2)cn1S(=O)(=O)c1ccc(C)cc1 [Compound 8, methyl 1-(4-methylphenyl) sulfonyl-4-(4-phenylmethoxycar-bonyl-1H-pyrrol-3-yl)pyrrole-2-carboxylate]	33.32	–
N=C1C=C(N)C(=O)c2nc(O)ccc21 [Compound 11, 7-amino-5-imino-1H-quinoline-2,8-dione]	–	% Inhibition 10 uM [2]: 46.89%; % Inhibition 10 uM (Table 1, 46 primary hits at 10 uM, HeLa cells, triplicate measurements, listed as 43, 10 µM): 57.34%
Cc1cc(N(C)C)ccc1/N=N/c1ccc2ncccc2c1 [Compound 12, N,N,3-trimethyl-4-(quinolin-6-yldiazenyl)aniline]	58.86	–
C/N=c1\sc2c(n1C)C(=O)c1ccccc1C2=O [Compound 13, 3-methyl-2-methyliminobenzo [f][1,3] benzothiazole-4,9-dione]	68.66	–
COC1=C(N)C(=O)c2nc(-c3nc(C(=O)O)c(C)c(-c4ccc(OC)c(OC)c4O)c3N)ccc2C1=O [Compound 14, 5-amino-6-(7-amino-6-methoxy-5,8-dioxoquinolin-2-yl)-4-(2-hydroxy-3,4-dimethoxyphenyl)-3-methylpyridine-2-carboxylic acid]	40.78	–
CC(=O)OC(C)C1C2=C(C(=O)C[C@]1(C)O)C(=O)c1c(ccc(-c3ccc4c(c3O)C(=O)C3=C(C4=O)C(C(C)OC(C)=O)[C@@](C)(O)CC3=O)c1O)C2=O (stereo partly drawn) [Compound 17, 1-[(2S)-6-[(6S)-5-(1-acetyloxyethyl)-1,6-dihydroxy-6-methyl-8,9,10-trioxo-5,7-dihydroanthracen-2-yl]-2,5-dihydroxy-2-methyl-4,9,10-trioxo-1,3-dihydroanthracen-1-yl]ethyl acetate]	46.81	–
Cc1ccc2c(c1)C(=C(C#N)C#N)CCN2 [Compound 18, 2-(6-methyl-2,3-dihydro-1H-quinolin-4-ylidene)propanedi-nitrile]	57.21	–
N#C/C(S)=N/c1ccc(F)cc1 [Compound 19, 1-cyano-N-(4-fluorophenyl) methanethioamide]	92.01	–
CC[C@H](C)[C@@H]1/N=C(\O)[C@@H](NC(=O)c2c3nc4c(C(=O)N[C@@H]5/C(O)=N/[C@@H](C(C)C)C(=O)N6CCC[C@H]6C(=O)N(C)CC(=O)N(C)[C@@H](C(C)C)C(=O)O[C@@H]5C)ccc(C)c4oc-3c(C)c(=O)c2N)[C@@H](C)OC(=O)[C@H](C(C)C)N(C)C(=O)CN(C)C(=O)[C@@H]2CCCN2C1=O [Compound 20, 2-amino-1-N-[(3S,6S,7R,10S, 16S)-3-[(2S)-butan-2-yl]-7,11,14-trimethyl-2,5,9,12,15-pentaoxo-10-propan-2-yl-8-oxa-1,4,11,14-tetrazabicyclo [14.3.0]nonadecan-6-yl]-4,6-dimethyl-3-oxo-9-N-[(3S,6S,7R, 10S,16S)-7,11,14-trimethyl-2,5,9,12,15-pentaoxo-3,10-di(propan-2-yl)-8-oxa-1,4,11,14-tetrazabicyclo [14.3.0]nonadecan-6-yl]phenoxazine-1,9-dicarboxamide]	–	% Inhibition 10 uM: 41.4%
COc1cc(O)c2c(c1)C(=O)c1cc3c(c(O)c1C2=O)C(OC1OC(C)C(O)C(O)C1OC)C(OC)C(C)(O)C3=O (stereo not shown) [Compound 22, 4-(4,5-dihydroxy-3-methoxy-6-methyloxan-2-yl)oxy-2,5,7-trihydroxy-3,9-dimethoxy-2-methyl-3,4-dihydrotetracene-1,6,11-trione]	52.48	–
COC(=O)c1nc(-c2ccc3c(n2)C(=O)C(N)=C(OC)C3=O)c(N)c(-c2ccc(OC)c(OC)c2O)c1C [Compound 23, methyl 5-amino-6-(7-amino-6-methoxy-5,8-dioxoquinolin-2-yl)-4-(2-hydroxy-3,4-dimethoxyphenyl)-3-methylpyridine-2-carboxylate]	–	% Inhibition 10 uM [2]: 50.17%; % Inhibition 10 uM (Table 1, 46 primary hits at 10 uM, HeLa cells, triplicate measurements, listed as 29, 10 µM): 60.1%
COc1c2c(c(CC=C(C)C)c3oc(=O)c(-c4ccc(O)cc4)c(O)c13)OC(C)(C)C=C2 [Compound 24, 6-hydroxy-7-(4-hydroxyphenyl)-5-methoxy-2,2-dimethyl-10-(3-methylbut-2-enyl)pyrano[3,2-g]chromen-8-one]	41.01	–
CC(C)(C)c1cc(C=C(C#N)C#N)cc(C(C)(C)C)c1O [Compound 25, 2-[(3,5-ditert-butyl-4-hydroxyphenyl)methylidene] propanedinitrile]	42.52	–

Continued, in another order:

% Inhibition 10 uM [1] [%]	SMILES	other results
14.38	Nc1ccc(N=Nc2ccccc2Cl)c(N)n1 [Compound 1, 3-[(2-chlorophenyl)diazenyl] pyridine-2,6-diamine]	–
11.16	Cc1cc(O)c(C(C)C)cc1C1(c2cc(C(C)C)c(O)cc2C)OC(=O)c2ccccc21 [Compound 2, 3,3-bis(4-hydroxy-2-methyl-5-propan-2-ylphenyl)-2-benzofuran-1-one]	–
22.41	Nc1ccc(/N=N/c2ccccc2)c2ccccc12 [Compound 3, 4-phenyldiazenylnaph-thalen-1-amine]	–
37.24	Cc1ccc(NC(=O)c2cc3ccccc3c(/N=N/c3ccccc3O)c2O)c(C)c1 [Compound 5, N-(2,4-dimethylphenyl)-3-hydroxy-4-[(2-hydroxyphenyl)diazenyl] naphthalene-2-carboxamide]	–
33.66	COc1ccc(OC)c(-c2cc(=O)c3c(OC)c(OC)c(OC)c(OC)c3o2)c1 [Compound 6, 2-(2,5-dimethoxyphenyl)-5,6,7,8-tetramethoxy-chromen-4-one]	–
16.02	COC(=O)c1c[nH]c2c1-c1cc(C(=O)OCc3ccccc3)n(S(=O)(=O)c3ccc(C)cc3)c1C(=O)C2=O [Compound 7, 2-O-benzyl 8-O-methyl 3-(4-methylphenyl) sulfonyl-4,5-dioxo-6H-pyrrolo[3,2-e]indole-2,8-dicarboxylate]	–
48.59	Cc1ccc(Cl)cc1NC(=O)c1cc2ccccc2cc1O [Compound 9, N-(5-chloro-2-methylphenyl)-3-hydroxy-naphthalene-2-carboxamide]	–
57.02	CCN(CC)Cc1cc(/N=N/c2c(O)ccc3c(/N=N/c4ccc(O)c(CN(CC)CC)c4)c(O)ccc23)ccc1O.Cl [Compound 15, 1,5-bis[[3-(diethyl-aminomethyl)-4-hydroxyphenyl]diazenyl] naphthalene-2,6-diol; hydrochloride]	–
62.4	Cc1nc(/N=N/c2ccccc2)[nH]c1/N=N/c1ccccc1 [Compound 16, (5-methyl-2-phenyldiazenyl-1H-imidazol-4-yl)-phenyldiazene]	–
39.88	COC(=O)c1cc2c(n1S(=O)(=O)c1ccc(C)cc1)C(=O)C(=O)c1[nH]cc(C(=O)OCc3ccccc3)c1-2 [Compound 21, 8-O-benzyl 2-O-methyl 3-(4-methylphenyl) sulfonyl-4,5-dioxo-6H-pyrrolo[3,2-e]indole-2,8-dicarboxylate]	–
